One data set has as its system opioid receptor. Particulars: agonist activity relative to DAMGO (=1.0); guinea pig ileum longitudinal muscle sample. On the procedure: Test 1: Action on the ileum sample excised from a guinea pig
A Hartley male guinea pig of about 500 g in weight was employed. From its ileocecum, 15 to 30 cm of the ileum was excised and a longitudinal muscle sample attached with the Auerbach's plexus was prepared. […] The agonist activity was indicated in terms of relative potency to DAMGO ([D-Ala^2, N-MePhe^4, Gly^5-ol]-enkephalin), a selective μ-opioid agonist.

Take `CN(C)C(=O)C(CCN1CCC(O)(c2cccc(O)c2)CC1)(c1ccccc1)c1ccccc1`: the melting point (usually the temperature of the solid-liquid transition) is 169 °C. On the same count and under the same terms, as for `CN(C)C(=O)C(CCN1CCC(O)(c2ccccc2OCCCCCCO)CC1)(c1ccccc1)c1ccccc1.Cl`, the figure is 110 °C; as for `CCCCNC(=O)C(CCN1CCC(O)(c2ccccc2OCCO)CC1)(c1ccccc1)c1ccccc1`, 130 to 131 °C; as for `CN(C)C(=O)C(CCN1CCC(O)(c2ccc(O)cc2)CC1)(c1ccccc1)c1ccccc1`, 155 °C. Regarding `C[C@@H](NC(=O)[C@@H](N)Cc1ccc(O)cc1)C(=O)NCC(=O)N(C)[C@@H](Cc1ccccc1)C(=O)NCCO` [DAMGO, [D-Ala^2, N-MePhe^4, Gly^5-ol]-enkephalin], in the data set on opioid receptor, the Relative potency was 1.0.

The values are drawn from US6362203B1, “4-hydroxy-4-phenylpiperidine derivatives and pharmaceuticals containing the same” (SSP Co., LTD, priority 1999, dated 2002).
